# Laboratory results reported in patent US20240109881A1, “Heteroaryl Compounds as Ligand Directed Degraders of IRAK4” (Bristol-Myers Squibb Company, priority 2022, published 2024).
# Molecular target: T1, IRAK4 (Homo sapiens, UniProt Q9NWZ3)
# T1 construct: endogenous in cells; host or cells: THP-1 cells
# T1 sequence (Q9NWZ3 1-460): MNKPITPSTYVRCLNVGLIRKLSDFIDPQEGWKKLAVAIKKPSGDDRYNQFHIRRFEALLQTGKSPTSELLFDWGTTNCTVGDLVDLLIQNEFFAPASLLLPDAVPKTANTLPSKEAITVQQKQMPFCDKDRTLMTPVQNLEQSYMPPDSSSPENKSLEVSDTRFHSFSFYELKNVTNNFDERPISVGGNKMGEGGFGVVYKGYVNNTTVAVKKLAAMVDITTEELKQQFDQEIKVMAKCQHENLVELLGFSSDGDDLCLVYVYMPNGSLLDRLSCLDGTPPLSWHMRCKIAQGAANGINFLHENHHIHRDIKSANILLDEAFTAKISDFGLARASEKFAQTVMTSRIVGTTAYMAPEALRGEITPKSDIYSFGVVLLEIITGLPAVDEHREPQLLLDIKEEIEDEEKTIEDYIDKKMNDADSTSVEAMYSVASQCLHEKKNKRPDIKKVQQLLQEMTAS
# Experiment: LVL THP1 HTRF (THP1 Homogeneous Time Resolved Fluorescence)
# Format: cell-based
# Conditions: THP1 cells, 18 h incubation with compound; for DC50: read-out: LVL THP1 HTRF EC50
# Procedure, shortened: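 THP-1 cells in phenol red-free RPMI with 10% FBS were dosed with compound (20 nL in DMSO) for 18 h at 37° C. After 2 h lysis, IRAK4 was detected with anti-IRAK4-d2/anti-IRAK4-K HTRF antibodies for 18 h at room temperature and read at 665/615 nm; a parallel CTG plate was run.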
Compound,LVL THP1 HTRF YMIN,DC50
C[C@H](C#N)Nc1cc(Nc2ncc(C#N)cc2Cl)ncc1-n1cc([C@H]2CC[C@H](CCN3CCN(c4ccc([C@@]5(C)CCC(=O)NC5=O)cc4)CC3)CC2)nn1 [P-297],6.5%,49.3 nM
C[C@H](C#N)Nc1cc(Nc2ccc(C#N)cn2)ncc1-n1cc([C@H]2CC[C@H](CCN3CCN(c4ccc([C@@]5(C)CCC(=O)NC5=O)cc4)CC3)CC2)nn1 [P-298],3.2%,82.7 nM
C[C@H](C#N)Nc1cc(Nc2ncc(C#N)cc2F)ncc1-n1cc([C@H]2CC[C@H](CCN3CCN(c4ccc([C@@]5(C)CCC(=O)NC5=O)cc4)CC3)CC2)nn1 [P-299],3.5%,36.4 nM
C[C@H](C#N)Nc1cc(Nc2ncc(C#N)cn2)ncc1-n1cc([C@H]2CC[C@H](CCN3CCN(c4ccc([C@@]5(C)CCC(=O)NC5=O)cc4)CC3)CC2)nn1 [P-300],11.7%,243 nM
C[C@@H]1CN(CC[C@H]2CC[C@H](c3cn(-c4cnc(-n5ncc6cc(C#N)cnc65)cc4NC4(C#N)CC4)nn3)CC2)CCN1c1ccc([C@@]2(C)CCC(=O)NC2=O)cc1 [P-301],17.8%,103 nM
C[C@H](C#N)Nc1cc(-n2ncc3cc(C#N)cnc32)ncc1C(=O)N[C@H]1CC[C@H](CCN2CCN(c3ccc(N4CCC(=O)NC4=O)cc3)CC2)CC1 [P-321],24.2%,645 nM
C[C@H](C#N)Nc1cc(-n2ncc3cc(C#N)cnc32)ncc1-n1cc([C@H]2CC[C@H](CCN3CC(Oc4ccc(N5CCC(=O)NC5=O)cc4)C3)CC2)nn1 [P-324],107.9%,1000 nM
Cc1cc(N2CCC(=O)NC2=O)ccc1C1CCN(CC[C@H]2CC[C@H](c3cn(-c4cnc(-n5ncc6cc(C#N)cnc65)cc4N[C@H](C)C#N)nn3)CC2)CC1 [P-334],23.5%,58.7 nM
C[C@H](C#N)Nc1cc(-n2ncc3cc(C#N)cnc32)ncc1-n1cc([C@H]2CC[C@H](CCN3CCC(c4cccc5c(N6CCC(=O)NC6=O)nn(C)c45)CC3)CC2)nn1 [P-335],5.1%,29.8 nM
Cc1cc(C2CCN(CC[C@H]3CC[C@H](c4cn(-c5cnc(-n6ncc7cc(C#N)cnc76)cc5N[C@H](C)C#N)nn4)CC3)CC2)ccc1N1CCC(=O)NC1=O [P-336],5.5%,25.1 nM
C[C@H](C#N)Nc1cc(-n2ncc3cc(C#N)cnc32)ncc1-n1cc([C@H]2CC[C@H](CCN3CCC(c4ccc(C5(O)CCC(=O)NC5=O)cc4)CC3)CC2)nn1 (some centres unmarked) [P-339],93.1%,18.6 nM
C[C@H](C#N)Nc1cc(-n2ncc3cc(C#N)cnc32)ncc1-n1cc([C@H]2CC[C@H](CCN3CCC(c4ccc(N5CCC(=O)NC5=O)cc4)CC3)CC2)nn1 [P-340],22.4%,582 nM
C[C@H](C#N)Nc1cc(-n2ncc3cc(C#N)cnc32)ncc1-n1cc([C@H]2CC[C@H](CCN3CCC(c4ccc(N5CCC(=O)NC5=O)c(Cl)c4)CC3)CC2)nn1 [P-342],7.1%,22.1 nM
C[C@H](C#N)Nc1cc(-n2ncc3cc(C#N)cnc32)ncc1-n1cc([C@H]2CC[C@H](CCN3CCC(c4ccc(NC5CCC(=O)NC5=O)cc4)CC3)CC2)nn1 (some centres unmarked) [P-343],87.0%,103 nM
C[C@H](C#N)Nc1cc(-n2ncc3cc(C#N)cnc32)ncc1-n1cc([C@H]2CC[C@H](CCN3CCC(c4cn(C5CCC(=O)NC5=O)nn4)CC3)CC2)nn1 (some centres unmarked) [P-344],8.9%,91.2 nM

# Continued, values first:
LVL THP1 HTRF YMIN,DC50,Compound
2.4%,1.2 nM,C[C@H](C#N)Nc1cc(-n2ncc3cc(C#N)c(N)nc32)ncc1C(=O)N[C@H]1CC[C@H](CCN2CCN(c3ccc([C@@]4(C)CCC(=O)NC4=O)cc3)CC2)CC1 [P-250]
1.9%,9.8 nM,C[C@H](C#N)Nc1cc(-n2ncc3cc(C#N)c(N)nc32)ncc1-n1cc([C@H]2CC[C@H](CCN3[C@@H](C)CN(c4ccc([C@@]5(C)CCC(=O)NC5=O)cc4)C[C@@H]3C)CC2)nn1 [P-251]
6.3%,11.8 nM,C[C@H](C#N)Nc1cc(-n2ncc3cc(C#N)c(N4C[C@H]5C[C@@H]4CO5)nc32)ncc1-n1cc([C@H]2CC[C@H](CCN3CCN(c4ccc([C@@]5(C)CCC(=O)NC5=O)cc4)CC3)CC2)nn1 [P-269]
0.2%,6.5 nM,C[C@H](C#N)Nc1cc(-n2ncc3cc(C#N)cnc32)ncc1C(=O)N[C@H]1CC[C@H](CCN2CC[C@H](c3ccc([C@@]4(C)CCC(=O)NC4=O)cc3)C[C@H]2C)CC1 [P-270]
9.9%,18.8 nM,C[C@H](C#N)Nc1cc(-n2ncc3cc(C#N)cnc32)ncc1C(=O)N[C@H]1CC[C@H](CCN2CC[C@@H](c3ccc([C@@]4(C)CCC(=O)NC4=O)cc3)C[C@@H]2C)CC1 [P-271]
10.2%,10.3 nM,CC1CN(CC[C@H]2CC[C@H](NC(=O)c3cnc(-n4ncc5cc(C#N)cnc54)cc3N[C@H](C)C#N)CC2)CCC1c1ccc([C@@]2(C)CCC(=O)NC2=O)cc1 (some centres unmarked) [P-272]
5.6%,4.9 nM,C[C@H](C#N)Nc1cc(-n2ncc3cc(C#N)cnc32)ncc1C(=O)N[C@H]1CC[C@H](CCN2CCC(c3ccc([C@@]4(C)CCC(=O)NC4=O)cc3)CC2)CC1 [P-273]
3.5%,5.8 nM,C[C@H](C#N)Nc1cc(-n2ncc3cc(C#N)cnc32)ncc1C(=O)N[C@H]1CC[C@H](CCN2CCC(F)(c3ccc([C@@]4(C)CCC(=O)NC4=O)cc3)CC2)CC1 [P-274]
2.9%,14.6 nM,C[C@H](C#N)Nc1cc(-n2ncc3cc(C#N)cnc32)ncc1C(=O)N[C@H]1CC[C@H](CCN2CCN(c3ccc([C@@]4(C)CCC(=O)NC4=O)cc3)[C@@H](C)C2)CC1 [P-275]
10.4%,18.5 nM,CC1CN(CC[C@H]2CC[C@H](c3cn(-c4cnc(-n5ncc6cc(C#N)cnc65)cc4N[C@H](C)C#N)nn3)CC2)CCC1c1ccc([C@@]2(C)CCC(=O)NC2=O)cc1 (some centres unmarked) [P-285]
−1.0%,3 nM,C[C@H](C#N)Nc1cc(-n2ncc3cc(C#N)cnc32)ncc1-n1cc([C@H]2CC[C@H](CCN3CCC(c4ccc([C@@]5(C)CCC(=O)NC5=O)cc4)C(F)C3)CC2)nn1 (some centres unmarked) [P-311]
1.4%,2.2 nM,C[C@H](C#N)Nc1cc(-c2ccc3cc(C#N)cnn23)ncc1-n1cc([C@H]2CC[C@H](CCN3CCN(c4ccc(C5CCC(=O)NC5=O)cc4)CC3)CC2)nn1 (some centres unmarked) [P-315]
4.4%,16.5 nM,C[C@H](C#N)Nc1cc(-n2ncc3cc(C#N)cnc32)ncc1-n1cc(C[C@H]2CC[C@H](CN3CCN(c4ccc(C5CCC(=O)NC5=O)cc4)CC3)CC2)nn1 (some centres unmarked) [P-322]
2.6%,5.9 nM,C[C@H](C#N)Nc1cc(-n2ncc3cc(C#N)cnc32)ncc1-n1cc([C@H]2CC[C@H](CCN3CC4(CC(c5ccc(N6CCC(=O)NC6=O)cc5)C4)C3)CC2)nn1 [P-329]
2.3%,17.4 nM,C[C@H](C#N)Nc1cc(-n2ncc3cc(C#N)cnc32)ncc1-n1cc([C@H]2CC[C@H](CCN3CC=C(c4ccc(N5CCC(=O)NC5=O)cc4)CC3)CC2)nn1 [P-330]
81.8%,2.4 nM,C[C@H](C#N)Nc1cc(-n2ncc3cc(C#N)cnc32)ncc1-n1cc([C@H]2CC[C@H](CCN3CCC(c4ccc(N5CCC(=O)NC5=O)nc4)CC3)CC2)nn1 [P-341]
